Results from US11613525B2 (CTXT PTY LIMITED, priority 2018, dated 2023).

Columns and labels:
huSTING (HAQ) = huSTING (HAQ) (Homo sapiens (Human), UniProt Q86WV6, G230A/H232R/R293Q/R71H); assay: THP-1 reporter cell line assay, THP-1 STING Lucia ISG cells; type: cell-based; conditions: THP-1 STING Lucia ISG cells; modified method, top concentration 40 μM, pin tool, EnVision; read-out: Cellular EC50 huSTING (HAQ)
huSTING (WT) = huSTING (WT) (Homo sapiens (Human), UniProt Q86WV6, H232R); assay: THP-1 reporter cell line assay, THP-1-Dual KI-hSTING-R232 cells; type: cell-based; conditions: read-out: Cellular EC50 huSTING (WT)
Chain of huSTING (WT) (Q86WV6 whole entry H232R): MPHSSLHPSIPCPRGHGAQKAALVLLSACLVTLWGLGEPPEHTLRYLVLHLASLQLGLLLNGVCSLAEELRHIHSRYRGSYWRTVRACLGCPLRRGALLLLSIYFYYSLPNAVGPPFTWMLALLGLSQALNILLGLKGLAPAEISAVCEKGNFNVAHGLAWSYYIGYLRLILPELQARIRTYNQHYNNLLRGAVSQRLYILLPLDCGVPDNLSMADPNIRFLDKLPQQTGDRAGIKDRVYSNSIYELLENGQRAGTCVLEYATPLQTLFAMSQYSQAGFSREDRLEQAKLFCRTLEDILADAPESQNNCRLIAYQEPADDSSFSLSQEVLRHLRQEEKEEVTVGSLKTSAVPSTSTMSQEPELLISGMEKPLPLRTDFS

Chain of huSTING (HAQ) (Q86WV6 whole entry R71H/G230A/H232R/R293Q): as the sequence (Q86WV6 whole entry H232R) above, with R71H, G230A, R293Q counted along it

SMILES	EC50 (huSTING (HAQ)) [nM]	EC50 (huSTING (WT)) [nM]
CCOC(=O)c1sc2cccc(Cl)c2c1COc1ccc(C(N)=O)c(OC)c1 [Example 97, Ethyl 3-((4-carbamoyl-3-methoxyphenoxy)methyl)-4-chlorobenzo[b]thiophene-2-carboxylate]	1430	9720
CCOC(=O)c1sc2c(Br)ccc(Cl)c2c1COc1c(F)cc(C(N)=O)cc1F [Example 99, Ethyl 7-bromo-3-((4-carbamoyl-2,6-difluorophenoxy)methyl)-4-chlorobenzo[b]thiophene-2-carboxylate]	22	135
CCOC(=O)c1sc2ccnc(OC)c2c1COc1c(F)cc(C(N)=O)cc1F [Example 102, Ethyl 3-((4-carbamoyl-2,6-difluorophenoxy)methyl)-4-methoxythieno[3,2-c]pyridine-2-carboxylate]	53	377
CCOC(=O)c1sc2ncnc(OC)c2c1COc1c(F)cc(C(N)=O)cc1F [Example 108]	344	341
CCOC(=O)c1sc2cccc(Cl)c2c1COc1c(F)cc(C(N)=O)cc1CO [Example 110, Ethyl 3-((4-carbamoyl-2-fluoro-6-(hydroxymethyl)phenoxy)methyl)-4-chlorobenzo[b]thiophene-2-carboxylate]	13	52
CCOC(=O)c1sc2cccc(COC)c2c1COc1c(F)cc(C(N)=O)cc1F [Example 115, Ethyl 3-((4-carbamoyl-2,6-difluorophenoxy)methyl)-4-(methoxymethyl)benzo[b]thiophene-2-carboxylate]	635	1510
CCOC(=O)c1sc2c(F)ccc(Br)c2c1COc1c(F)cc(C(N)=O)cc1F [Example 116, Ethyl 4-bromo-3-((4-carbamoyl-2,6-difluorophenoxy)methyl)-7-fluorobenzo[b]thiophene-2-carboxylate]	24	76
CCOC(=O)c1sc2ccnc(OC)c2c1COc1c(F)cc(C(N)=O)cc1CO [Example 121, Ethyl 3-((4-carbamoyl-2-fluoro-6-(hydroxymethyl)phenoxy)methyl)-4-methoxythieno[3,2-c]pyridine-2-carboxylate]	59	580
COc1cccc2sc(C(=O)OCOC(=O)C(C)(C)C)c(COc3c(F)cc(C(N)=O)cc3F)c12 [Example 123, (Pivaloyloxy)methyl 3-((4-carbamoyl-2,6-difluorophenoxy)methyl)-4-methoxybenzo[b]thiophene-2-carboxylate]	49	335
CC(C)(C)C(=O)OCOC(=O)c1sc2cccc(C3CC3)c2c1COc1c(F)cc(C(N)=O)cc1F [Example 124, (Pivaloyloxy)methyl 3-((4-carbamoyl-2,6-difluorophenoxy)methyl)-4-cyclopropylbenzo[b]thiophene-2-carboxylate]	278	1430
CCC(=O)OC(OC(=O)c1sc2cccc(Cl)c2c1COc1c(F)cc(C(N)=O)cc1F)C(C)C (stereo not drawn) [Example 125, 2-Methyl-1-(propionyloxy)propyl 3-((4-carbamoyl-2,6-difluorophenoxy)methyl)-4-chlorobenzo[b]thiophene-2-carboxylate]	86	529
Cc1oc(=O)oc1COC(=O)c1sc2cccc(Cl)c2c1COc1c(F)cc(C(N)=O)cc1F [Example 126, (5-Methyl-2-oxo-1,3-dioxol-4-yl)methyl 3-((4-carbamoyl-2,6-difluorophenoxy)methyl)-4-chlorobenzo[b]thiophene-2-carboxylate]	39	187
CC(C)(C)C(=O)OCOC(=O)c1sc2cccc(Br)c2c1COc1c(F)cc(C(N)=O)cc1F [Example 128, (Pivaloyloxy)methyl 4-bromo-3-((4-carbamoyl-2,6-difluorophenoxy)methyl)benzo[b]thiophene-2-carboxylate]	68	210
CC(OC(=O)OC(C)(C)C)OC(=O)c1sc2cccc(Cl)c2c1COc1c(F)cc(C(N)=O)cc1F (stereo not drawn) [Example 129, 1-((tert-Butoxycarbonyl)oxy)ethyl 3-((4-carbamoyl-2,6-difluorophenoxy)methyl)-4-chlorobenzo[b]thiophene-2-carboxylate]	119	1580
CC(C)(C)OC(=O)OCOC(=O)c1sc2cccc(Cl)c2c1COc1c(F)cc(C(N)=O)cc1F [Example 130, ((tert-Butoxycarbonyl)oxy)methyl 3-((4-carbamoyl-2,6-difluorophenoxy)methyl)-4-chlorobenzo[b]thiophene-2-carboxylate]	60	687
CC(C)(C)C(=O)OCOC(=O)c1sc2c(F)ccc(Br)c2c1COc1c(F)cc(C(N)=O)cc1F [Example 131]	44	57
CC(C)OC(=O)OC(C)OC(=O)c1sc2cccc(Cl)c2c1COc1c(F)cc(C(N)=O)cc1F (stereo not drawn) [Example 132, 1-((Isopropoxycarbonyl)oxy)ethyl 3-((4-carbamoyl-2,6-difluorophenoxy)methyl)-4-chlorobenzo[b]thiophene-2-carboxylate]	97	916
CC(C)[C@H](NC(=O)OC(C)(C)C)C(=O)OCOC(=O)c1sc2cccc(Cl)c2c1COc1c(F)cc(C(N)=O)cc1F [Example 133, (((tert-Butoxycarbonyl)-L-valyl)oxy)methyl 3-((4-carbamoyl-2,6-difluorophenoxy)methyl)-4-chlorobenzo[b]thiophene-2-carboxylate]	120	806
CC(=O)OC(C)OC(=O)c1sc2cccc(Cl)c2c1COc1c(F)cc(C(N)=O)cc1F (stereo not drawn) [Example 134, 1-Acetoxyethyl 3-((4-carbamoyl-2,6-difluorophenoxy)methyl)-4-chlorobenzo[b]thiophene-2-carboxylate]	42	217
CC(OC(=O)c1sc2cccc(Cl)c2c1COc1c(F)cc(C(N)=O)cc1F)OC(=O)C(C)C (stereo not drawn) [Example 135, 1-(Isobutyryloxy)ethyl 3-((4-carbamoyl-2,6-difluorophenoxy)methyl)-4-chlorobenzo[b]thiophene-2-carboxylate]	64	334
NC(=O)c1cc(F)c(OCc2c(C(=O)OCCN3CCOCC3)sc3cccc(Cl)c23)c(F)c1 [Example 137, 2-Morpholinoethyl 3-((4-carbamoyl-2,6-difluorophenoxy)methyl)-4-chlorobenzo[b]thiophene-2-carboxylate]	21	226
CN(C)C(=O)OCOC(=O)c1sc2cccc(Cl)c2c1COc1c(F)cc(C(N)=O)cc1F [Example 138, ((Dimethylcarbamoyl)oxy)methyl 3-((4-carbamoyl-2,6-difluorophenoxy)methyl)-4-chlorobenzo[b]thiophene-2-carboxylate]	14	242
CC(=O)N[C@H](C(=O)OCOC(=O)c1sc2cccc(Cl)c2c1COc1c(F)cc(C(N)=O)cc1F)C(C)C [Example 139, ((Acetyl-L-valyl)oxy)methyl 3-((4-carbamoyl-2,6-difluorophenoxy)methyl)-4-chlorobenzo[b]thiophene-2-carboxylate]	36	291
CCC(=O)OC(OC(=O)c1sc2c(F)ccc(Br)c2c1COc1c(F)cc(C(N)=O)cc1F)C(C)C (stereo not drawn) [Example 140, 2-Methyl-1-(propionyloxy)propyl 4-bromo-3-((4-carbamoyl-2,6-difluorophenoxy)methyl)-7-fluorobenzo[b]thiophene-2-carboxylate]	46	160
